Here are results for one compound from patent US20240108722A1, “TUMOR-INFILTRATING LYMPHOCYTES WITH MEMBRANE BOUND INTERLEUKIN 15 AND USES THEREOF” (OBSIDIAN THERAPEUTICS, INC., priority 2021, published 2024).

The subject of this experiment is regulated mbIL15 TILs. The experiment in a line: ACZ regulation of IL15 expression and signaling, phospho-flow cytometry-based assay. The format is cell-based, human. The note with it: 18 hours. How it is done: Pre-REP TILs were prepared similarly to the methods of Example 1-3 and 9, and unengineered and mbIL15 TIL generated accordingly as described in Examples 1-3 and 9. Engagement of the IL15 signaling pathway results in phosphorylation of signal transducers downstream, including the transcription factor protein STAT5 and ribosomal protein S6. […] Next, the regulated mbIL15 TILs were regulated for 18 hours in the presence of a range of concentrations of ACZ including 0.1, 1, 2.5, 5, 10, 25, 100 as well as vehicle control. The regulated mbIL15 TILs were then collected for staining and FACS analysis.
Briefly, cells were stained using antibodies for CD3, CD4, CD8, IL15 and a Live/Dead marker. Then cells were fixed in 2% formaldehyde (BD Cytofix) and permeabilized using a methanol-based buffer (BD Phospho Perm III Buffer) before staining with antibodies specific for phosphorylated STAT5 (Biolegend) and S6 (Cell Signaling Technology). Cells were acquired on the BD Symphony and analyzed using FlowJo software.
With increasing concentrations of ACZ expression of mbIL15 also increases, plateauing at around 10-25 μM of ACZ. FIG. 9A. […] FIGS. 9B-E and FIG. 10.
(Flow cytometry measures light scatter and fluorescence of single cells or particles in a stream.)

Take `CC(=O)Nc1nnc(S(N)(=O)=O)s1` [ACZ, acetazolamide]: the “staining intensity of pSTAT5 and pS6” value (0.1-100 μM ACZ, regulated mbIL15 TILs) was “increased with higher concentrations of ACZ”. In addition, the “ACZ concentration at which mbIL15 expression plateaus” value (regulated mbIL15 TILs from four human donors) lay in the range of 10 to 25 µM.
